The source of these data is US20100069415A1, “2,6-DIPHENYL-4,8-DIAZOADAMANTAN-1-ONE AND DERIVATIVES THEREOF, PROCESS OF MANUFACTURE AND USE FOR THE FORMULATION OF SOLUTIONS WITH STERILIZING AND DISINFECTANT EFFECT” (PIETRO AFFAITATI, priority 2006, published 2010).

This data set is described as follows: Solubility characterization of 2,6-diphenyl-4,8-diazoadamantan-1-one. It is filed as physicochemical. An excerpt:
This molecule is soluble in propylene glycol and apolar organic solvents, whereas it is insoluble in water and ethanol.

As for 2,6-diphenyl-4,8-diazoadamantan-1-one, for the setting “solvent: apolar organic solvents”, the “solubility in apolar organic solvents” value is “soluble”. Further, under “solvent: ethanol”, the solubility in ethanol entry was “insoluble”. In addition, the “solubility in propylene glycol” value (solvent: propylene glycol) was “soluble”. Also, under “solvent: water”, the solubility in water entry is listed as “insoluble”.
